Laboratory results published in patent publication US20050112573A1, “Method of detecting toxic substance” (priority 2001, published 2005).

Tested on: yeast genes (level of expressed mRNA)
Assay: DNA chip analysis of expressed mRNA of yeast genes after 2 h culture with a toxic chemical substance
Type: cell-based, Saccharomyces cerevisiae S288C
Procedure: Yeast (Saccharomyces cerevtisiae S288C (α SUC2mal mel gap2 CUP1)) were cultured at 25° C. on YPD medium (yeast extract 1%, polypepton 2%, glucose 2%). One of toxic chemical substances was added to the cell at logarithmic growth phase, and the cell was further cultured for two hours. Cell was cultured without any chemical substance in the same condition, and was used as control. Concentrations of the chemical substances were defined to inhibit the growth of the yeast but not lead to death.
After the completion of cultivation, the culture was centrifuged to collect the cells. To the cells, sodium acetate buffer (50 mM sodium acetate, 10 mM EDTA, 1% SDS) was added, and the mixture was shaken at 65° C. for five minutes, followed by returning to room temperature, and obtaining the supernatant, which procedure was repeated two times. To the supernatant, ½ amount of a solution of phenol/chloroform was added, and the mixture was centrifuged to give a supernatant, which was added with an equal amount of chloroform, and the mixture was centrifuged to give a supernatant. To the supernatant, an equal amount of isopropanol containing 0.3 M sodium acetate was added, and the mixture was allowed to stand at room temperature for 30 minutes, after which the mixture was centrifuged to give a sediment of the whole RNAs. Seventy % ethanol was added to the sediment, and the mixture was again centrifuged to give a sediment, which was then dried and dissolved in water. mRNA was isolated from the whole RNAs as followings. In view of the fact that a poly A chain is attached to the 3′ terminus of mRNA, a polynucleotide having a poly T structure which was immobilized on the surface of latex beads was used to trap the mRNA, and then the mRNA was washed and eluted with spine column (Oligotex-dT30<Super>mRNA Purification Kit, Takara). Reverse transcription of the mRNA was conducted with a reverse transcriptase (Super Script II Reverse Transcriptase; catalogue No. 18064-014, GibcoBRL) using fluorescence-labeled nucleotides to give cDNAs that were introduced with Cy3-dUTP or Cy5-dUTP during the reverse transcription.
The labeled cDNAs were dissolved in TE buffer (10 mM Tris-HCl/1 mM EDTA, pH8.0), and the solution was dropped on the DNA chip containing the whole genes of yeast (DNA Chip Research Inc. Japan) so that the cDNAs were hybridized on the DNA chip at 65° C. for over 12 hours. The fluoresces intensity of the DNA chip was read with a scanner, and the ratio relative to the fluorescence intensity resulting from the absence of chemical substance was estimated as the following, which is shown in Tables 1 to 9: [formula]
In the Tables, “Intensity” indicated in the rightmost column is a value of the level of expressed mRNA of each gene in control cells as divided by the average level of the expressions of the whole genes.

## Oc1cc(Cl)c(Cl)cc1Cl [(6), 2,4,5-trichlorophenol]
Yeast gene YKL013C
  The level of expressed mRNA in the presence of chemical substance/The level of expressed mRNA in the absence of chemical substance: 1.9
Yeast gene YKL039W
  The level of expressed mRNA in the presence of chemical substance/The level of expressed mRNA in the absence of chemical substance: 4.9
Yeast gene YKL041W
  The level of expressed mRNA in the presence of chemical substance/The level of expressed mRNA in the absence of chemical substance: 2.2
Yeast gene YKL096W
  The level of expressed mRNA in the presence of chemical substance/The level of expressed mRNA in the absence of chemical substance: 0.6
Yeast gene YKL165C
  The level of expressed mRNA in the presence of chemical substance/The level of expressed mRNA in the absence of chemical substance: 0.6
Yeast gene YKL193C
  The level of expressed mRNA in the presence of chemical substance/The level of expressed mRNA in the absence of chemical substance: 0.9
Yeast gene YLR120C
  The level of expressed mRNA in the presence of chemical substance/The level of expressed mRNA in the absence of chemical substance: 1.9
Yeast gene YLR136C
  The level of expressed mRNA in the presence of chemical substance/The level of expressed mRNA in the absence of chemical substance: 1.7
Yeast gene YLR178C
  The level of expressed mRNA in the presence of chemical substance/The level of expressed mRNA in the absence of chemical substance: 4.2
Yeast gene YLR250W
  The level of expressed mRNA in the presence of chemical substance/The level of expressed mRNA in the absence of chemical substance: 1.1
Yeast gene YLR327C
  The level of expressed mRNA in the presence of chemical substance/The level of expressed mRNA in the absence of chemical substance: 5.1
Yeast gene YLR356W
  The level of expressed mRNA in the presence of chemical substance/The level of expressed mRNA in the absence of chemical substance: 3.4
Yeast gene YLR362W
  The level of expressed mRNA in the presence of chemical substance/The level of expressed mRNA in the absence of chemical substance: 0.8
Yeast gene YLR391W
  The level of expressed mRNA in the presence of chemical substance/The level of expressed mRNA in the absence of chemical substance: 1.5
Yeast gene YLR429W
  The level of expressed mRNA in the presence of chemical substance/The level of expressed mRNA in the absence of chemical substance: 0.8
Yeast gene YMR004W
  The level of expressed mRNA in the presence of chemical substance/The level of expressed mRNA in the absence of chemical substance: 0.5
Yeast gene YMR094W
  The level of expressed mRNA in the presence of chemical substance/The level of expressed mRNA in the absence of chemical substance: 0.5
Yeast gene YMR104C
  The level of expressed mRNA in the presence of chemical substance/The level of expressed mRNA in the absence of chemical substance: 1.9
Yeast gene YMR219W
  The level of expressed mRNA in the presence of chemical substance/The level of expressed mRNA in the absence of chemical substance: 0.8
Yeast gene YMR226C
  The level of expressed mRNA in the presence of chemical substance/The level of expressed mRNA in the absence of chemical substance: 2.6
Yeast gene YMR275C
  The level of expressed mRNA in the presence of chemical substance/The level of expressed mRNA in the absence of chemical substance: 1.4
Yeast gene YMR276W
  The level of expressed mRNA in the presence of chemical substance/The level of expressed mRNA in the absence of chemical substance: 0.8
Yeast gene YMR314W
  The level of expressed mRNA in the presence of chemical substance/The level of expressed mRNA in the absence of chemical substance: 1.3
Yeast gene YNL006W
  The level of expressed mRNA in the presence of chemical substance/The level of expressed mRNA in the absence of chemical substance: 1.0
Yeast gene YNL007C
  The level of expressed mRNA in the presence of chemical substance/The level of expressed mRNA in the absence of chemical substance: 0.6
Yeast gene YNL093W
  The level of expressed mRNA in the presence of chemical substance/The level of expressed mRNA in the absence of chemical substance: 1.6
Yeast gene YNL333W
  The level of expressed mRNA in the presence of chemical substance/The level of expressed mRNA in the absence of chemical substance: 1.5
Yeast gene YNR010W
  The level of expressed mRNA in the presence of chemical substance/The level of expressed mRNA in the absence of chemical substance: 1.3
Yeast gene YNR069C
  The level of expressed mRNA in the presence of chemical substance/The level of expressed mRNA in the absence of chemical substance: 1.7
Yeast gene YOL013C
  The level of expressed mRNA in the presence of chemical substance/The level of expressed mRNA in the absence of chemical substance: 1.1
Yeast gene YOL164W
  The level of expressed mRNA in the presence of chemical substance/The level of expressed mRNA in the absence of chemical substance: 1.2
Yeast gene YOR036W
  The level of expressed mRNA in the presence of chemical substance/The level of expressed mRNA in the absence of chemical substance: 1.7
Yeast gene YOR117W
  The level of expressed mRNA in the presence of chemical substance/The level of expressed mRNA in the absence of chemical substance: 1.1
Yeast gene YOR124C
  The level of expressed mRNA in the presence of chemical substance/The level of expressed mRNA in the absence of chemical substance: 0.9
Yeast gene YOR132W
  The level of expressed mRNA in the presence of chemical substance/The level of expressed mRNA in the absence of chemical substance: 1.6
Yeast gene YOR157C
  The level of expressed mRNA in the presence of chemical substance/The level of expressed mRNA in the absence of chemical substance: 1.2
Yeast gene YOR181W
  The level of expressed mRNA in the presence of chemical substance/The level of expressed mRNA in the absence of chemical substance: 0.9
Yeast gene YOR185C
  The level of expressed mRNA in the presence of chemical substance/The level of expressed mRNA in the absence of chemical substance: 3.0
Yeast gene YOR198C
  The level of expressed mRNA in the presence of chemical substance/The level of expressed mRNA in the absence of chemical substance: 0.9
Yeast gene YOR259C
  The level of expressed mRNA in the presence of chemical substance/The level of expressed mRNA in the absence of chemical substance: 0.8
Yeast gene YOR261C
  The level of expressed mRNA in the presence of chemical substance/The level of expressed mRNA in the absence of chemical substance: 1.4
Yeast gene YOR288C
  The level of expressed mRNA in the presence of chemical substance/The level of expressed mRNA in the absence of chemical substance: 1.0
Yeast gene YOR355W
  The level of expressed mRNA in the presence of chemical substance/The level of expressed mRNA in the absence of chemical substance: 1.6
Yeast gene YOR383C
  The level of expressed mRNA in the presence of chemical substance/The level of expressed mRNA in the absence of chemical substance: 6.8
Yeast gene YPL089C
  The level of expressed mRNA in the presence of chemical substance/The level of expressed mRNA in the absence of chemical substance: 0.8
Yeast gene YPL109C
  The level of expressed mRNA in the presence of chemical substance/The level of expressed mRNA in the absence of chemical substance: 1.2
Yeast gene YPL149W
  The level of expressed mRNA in the presence of chemical substance/The level of expressed mRNA in the absence of chemical substance: 0.9
Yeast gene YPL154C
  The level of expressed mRNA in the presence of chemical substance/The level of expressed mRNA in the absence of chemical substance: 3.5
Yeast gene YPR103W
  The level of expressed mRNA in the presence of chemical substance/The level of expressed mRNA in the absence of chemical substance: 1.2
Yeast gene YPR108W
  The level of expressed mRNA in the presence of chemical substance/The level of expressed mRNA in the absence of chemical substance: 1.5
